Where two headings read alike, the source gives them in different places.
Assays:
Type in all cases: cell-based
[1] = tested on: SARS-CoV-2 (Wuhan variant); experiment: microbe, parasite or virus in culture; settings: for inhibition of SARS-CoV-2 replication in virus-infected cells: 2 and 10 µM, Vero cells
[2] = tested on: SARS-CoV-2 variants Alpha (B.1.1.7), Beta (B.1.351), Gamma (p.1), Delta (B.1.617.2), and Omicron (B.1.1.529); settings: 1 and 10 µM, 48 h, Vero cells
[3] = tested on: SARS-CoV-2 (Wuhan variant); experiment: Virucidal activity against SARS-CoV-2 (plaque assay); settings: 10 µM, 120 min at 37 °C in the dark
[4] = Severe acute respiratory syndrome coronavirus 2, Vero, 48 h, read-out: App. EC50
[5] = Severe acute respiratory syndrome coronavirus 2, Vero, read-out: EC50

Compound O=C(O)c1ccc(-c2ccc3c4cccc5cccc(c6cccc2c63)c54)s1 [Compound 16] has an EC50 [1, 4] of 2560 nM, an EC50 [1, 5] of 536 nM and an EC50 ([1]; read-out: EC50) of 537 nM.

O=c1[nH]c(=O)n([C@H]2C[C@H](O)[C@@H](CO)O2)cc1C#Cc1ccc2c3cccc4cccc(c5cccc1c52)c43 [Compound 2, 5-(perylen-3-yl)ethynyl-2′-deoxy-uridine] showed an EC50 [1, 4] of 843 nM, an EC50 [1, 5] of 256 nM and an EC50 ([1]; read-out: EC50) of 256 nM. The “replication of all tested SARS-CoV-2 variants” value [2] was “efficiently inhibited”.

For Cn1cc(C#Cc2ccc3c4cccc5cccc(c6cccc2c63)c54)c(=O)n(C)c1=O [Compound 4], the EC50 [1, 4] was 2060 nM, the EC50 [1, 5] was 406 nM and the EC50 ([1]; read-out: EC50) was 406 nM.

O=c1[nH]c(=O)n([C@@H]2O[C@H](CO)[C@@H](O)[C@@H]2O)cc1C#Cc1ccc2c3cccc4cccc(c5cccc1c52)c43 [Compound 1, 5-(perylen-3-yl)ethynyl-arabino-uridine] was tested, and the EC50 [1, 4] was 1120 nM, the EC50 [1, 5] was 406 nM and the EC50 ([1]; read-out: EC50) was 406 nM.

With CC(C)(C)C(=O)OCn1c(=O)c(C#Cc2ccc3c4cccc5cccc(c6cccc2c63)c54)cn(CC(=O)NCCCCCCO)c1=O [Compound 12] the EC50 [1, 4] was greater than 5000 nM, the EC50 [1, 5] was 812 nM and the EC50 ([1]; read-out: EC50) was 812 nM.

In the case of CC(C)(C)C(=O)OCn1c(=O)c(C#Cc2ccc3c4cccc5cccc(c6cccc2c63)c54)cn(CC(=O)NCCCCCO)c1=O [Compound 11], the EC50 [1, 4] is reported as 1070 nM and the EC50 [1, 5] is reported as 433 nM.

Compound O=C(O)c1ccc2c3cccc4cccc(c5cccc1c52)c43 [Compound 20] has an EC50 [1, 4] greater than 5000 nM and an EC50 [1, 5] greater than 2500 nM.

CCCCNC(=O)Cn1cc(C#Cc2ccc3c4cccc5cccc(c6cccc2c63)c54)c(=O)n(COC(=O)C(C)(C)C)c1=O [Compound 8] gave an EC50 [1, 4] greater than 5000 nM and an EC50 [1, 5] of roughly 2000 nM.

In the case of CC(C)(C)C(=O)OCn1c(=O)c(C#Cc2ccc3c4cccc5cccc(c6cccc2c63)c54)cn(CC(=O)NC[C@@H](O)C(C)(C)CO)c1=O [Compound 7], the “inhibition of SARS-CoV-2 replication in virus-infected cells” value [1] is reported as “complete inhibition”, the EC50 [1, 4] is reported as 1170 nM and the EC50 [1, 5] is reported as 417 nM.

With CC(C)(C)C(=O)OCn1c(=O)c(C#Cc2ccc3c4cccc5cccc(c6cccc2c63)c54)cn(CC(=O)NCCCCO)c1=O [Compound 6] the EC50 [1, 4] was 781 nM and the EC50 [1, 5] was 91.5 nM.

O=C(c1ccc(-c2ccc3c4cccc5cccc(c6cccc2c63)c54)s1)N(CCO)CCO [Compound 18] showed an EC50 [1, 4] of 132 nM, an EC50 [1, 5] of 19 nM and an EC50 ([1]; read-out: EC50) of 19.1 nM.

In the case of CC(C)(C)C(=O)OCn1c(=O)c(C#Cc2ccc3c4cccc5cccc(c6cccc2c63)c54)cn(CC(=O)NCCO)c1=O [Compound 9], the EC50 [1, 4] is reported as 781 nM and the EC50 [1, 5] is reported as 140 nM.

In the case of O=C(NCCCCO)c1ccc(-c2ccc3c4cccc5cccc(c6cccc2c63)c54)s1 [Compound 17], the EC50 [1, 4] is reported as less than 4 nM, the EC50 [1, 5] is reported as less than 4 nM and the “virucidal effect against SARS-CoV-2 (ranking)” value [3] is reported as “strongest virucidal effect”. The “replication of all tested SARS-CoV-2 variants” value [2] was “efficiently inhibited”.

In the case of CCCCNC(=O)c1ccc(-c2ccc3c4cccc5cccc(c6cccc2c63)c54)s1 [Compound 19], the EC50 [1, 4] is reported as 470 nM, the EC50 [1, 5] is reported as 98 nM and the EC50 ([1]; read-out: EC50) is reported as 98.2 nM.

With CN(C)c1ccc(C#Cc2ccc3c4cccc5cccc(c6cccc2c63)c54)cc1 [Compound 14] the EC50 [1, 4] was greater than 5000 nM and the EC50 [1, 5] was greater than 2500 nM.

CC(=O)Nc1ccc(C#Cc2ccc3c4cccc5cccc(c6cccc2c63)c54)cc1 [Compound 15] showed an EC50 [1, 4] of 325 nM, an EC50 [1, 5] of 63 nM and an EC50 ([1]; read-out: EC50) of 63.1 nM.

In the case of CC(C)(C)C(=O)OCn1c(=O)c(C#Cc2ccc3c4cccc5cccc(c6cccc2c63)c54)cn(CC(=O)O)c1=O [Compound 5], the EC50 [1, 4] is reported as greater than 5000 nM, the EC50 [1, 5] is reported as roughly 2000 nM and the EC50 ([1]; read-out: EC50) is reported as 2050 nM.

In the case of O=c1[nH]cc(C#Cc2ccc3c4cccc5cccc(c6cccc2c63)c54)c(=O)[nH]1 [Compound 3], the EC50 [1, 4] is reported as greater than 5000 nM and the EC50 [1, 5] is reported as greater than 2500 nM.

For CC(C)(C)C(=O)OCn1c(=O)c(C#Cc2ccc3c4cccc5cccc(c6cccc2c63)c54)cn(CC(=O)N(CCO)CCO)c1=O [Compound 13], the “inhibition of SARS-CoV-2 replication in virus-infected cells” value [1] was “complete inhibition”, the EC50 [1, 4] was 622 nM and the EC50 [1, 5] was 274 nM. The “replication of all tested SARS-CoV-2 variants” value [2] was “efficiently inhibited”.

In the case of CC(C)(C)C(=O)OCn1c(=O)c(C#Cc2ccc3c4cccc5cccc(c6cccc2c63)c54)cn(CC(=O)NCCCO)c1=O [Compound 10], the EC50 [1, 4] is reported as 1930 nM and the EC50 [1, 5] is reported as 382 nM.
